# According to US20060069132A1, “Azolecarboxamide herbicides” (priority 2004, published 2006):
# Read-outs that look alike come from different tables or passages of the source.
# Columns and labels:
# [1] = tested on: lambsquarters; assay: Test B pre-/postemergence herbicide test; format: in vivo, Chenopodium album; details: Chenopodium album, 336 h; for pest or weed control at 125 g/ha: 125 g ai/ha; for pest or weed control at 500 g/ha: 500 g ai/ha
# Outline: (§1)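 Greenhouse pot assay with simultaneous preemergence (treated seed) and postemergence (2–18 cm seedlings) applications of surfactant-containing, non-phytotoxic solvent formulations. Response scored visually 13–15 days later on a 0–100 scale, 100 meaning complete control.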
# [2] = tested on: wheat; assay: Test B postemergence herbicide test; format: in vivo, Triticum aestivum; details: Triticum aestivum, post-emergence, 336 h, postemergence, read-out: Wheat plant response rating
# Outline: (§2)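 Formulated test chemicals went onto postemergence plants measuring 2 to 18 cm, at one to four leaves. For the paddy assay, species had reached two leaves. Scoring took place 13–15 days later by eye, relative to untreated plants, using 0 for no effect up to 100 for full control.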
# [3] = tested on: giant foxtail; assay: Test B pre-/postemergence herbicide test; format: in vivo, Setaria faberi; details: Setaria faberi, 336 h; for pest or weed control at 125 g/ha: 125 g ai/ha; for pest or weed control at 500 g/ha: 500 g ai/ha
# Outline: as §1
# [4] = tested on: Surinam grass; assay: Test B pre-/postemergence herbicide test; format: in vivo, Urochloa decumbens; details: Urochloa decumbens; for pest or weed control at 125 g/ha: 125 g ai/ha; for pest or weed control at 500 g/ha: 500 g ai/ha
# Outline: as §1
# [5] = tested on: cocklebur; assay: Test B pre-/postemergence herbicide test; format: in vivo, Xanthium strumarium; details: Xanthium strumarium; for pest or weed control at 125 g/ha: 125 g ai/ha; for pest or weed control at 500 g/ha: 500 g ai/ha
# Outline: (§3)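 Plants compared with untreated controls 13–15 days post-treatment and given a visual 0–100 injury score. Applications: preemergence to seeds; postemergence at 1- to 4-leaf (2–18 cm); paddy species flooded, 2-leaf stage. Vehicle non-phytotoxic, surfactant included.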
# [6] = tested on: large crabgrass; assay: Test B pre-/postemergence herbicide test; format: in vivo, Digitaria sanguinalis; details: Digitaria sanguinalis; for pest or weed control at 125 g/ha: 125 g ai/ha; for pest or weed control at 500 g/ha: 500 g ai/ha
# Outline: as §1
# [7] = tested on: rice; assay: Test B flooded paddy test; format: in vivo, Oryza sativa; details: Oryza sativa, 336 h, 1000 g ai/ha, scale 0 to 100 (0 no effect, 100 complete control), read-out: Rice plant response rating
# Outline: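 Greenhouse test; postemergence application to plants at 1–4 leaves (2–18 cm); paddy species at 2 leaves; evaluated visually vs controls at 13–15 days; scale 0–100 (100 = complete control).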
# [8] = tested on: ducksalad; assay: Test B flooded paddy test; format: in vivo, Heteranthera limosa; details: Heteranthera limosa, 336 h, 1000 g ai/ha, scale 0 to 100 (0 no effect, 100 complete control), read-out: Ducksalad plant response rating
# Outline: as §2
# [9] = tested on: barnyardgrass; assay: Test B flooded paddy test; format: in vivo, Echinochloa crus-galli; details: Echinochloa crus-galli, 336 h, 1000 g ai/ha, scale 0 to 100 (0 no effect, 100 complete control), read-out: Barnyardgrass plant response rating
# Outline: as §2
# [10] = tested on: pigweed; assay: Test B pre-/postemergence herbicide test; format: in vivo, Amaranthus retroflexus; details: Amaranthus retroflexus, 336 h; for pest or weed control at 125 g/ha: 125 g ai/ha; for pest or weed control at 500 g/ha: 500 g ai/ha
# Outline: as §1
# [11] = tested on: morningglory; assay: Test B pre-/postemergence herbicide test; format: in vivo, Ipomoea coccinea; details: Ipomoea, 336 h; for pest or weed control at 125 g/ha: 125 g ai/ha; for pest or weed control at 500 g/ha: 500 g ai/ha
# Outline: as §3
# [12] = tested on: barnyardgrass; assay: Test B pre-/postemergence herbicide test; format: in vivo, Echinochloa crus-galli; details: Echinochloa crus-galli; for pest or weed control at 125 g/ha: 125 g ai/ha; for pest or weed control at 500 g/ha: 500 g ai/ha
# Outline: as §3
# [13] = tested on: wild oat; assay: Test B postemergence herbicide test; format: in vivo, Avena fatua; details: Avena fatua, post-emergence, 336 h, postemergence, read-out: Oat, Wild plant response rating
# Outline: as §2
# [14] = tested on: velvetleaf; assay: Test B pre-/postemergence herbicide test; format: in vivo, Abutilon theophrasti; details: Abutilon theophrasti, 336 h; for pest or weed control at 125 g/ha: 125 g ai/ha; for pest or weed control at 500 g/ha: 500 g ai/ha
# Outline: as §1
# [15] = tested on: small flower umbrella sedge; assay: Test B flooded paddy test; format: in vivo, Cyperus difformis; details: Cyperus difformis, 336 h, 1000 g ai/ha, scale 0 to 100 (0 no effect, 100 complete control), read-out: Sedge, Umbrella plant response rating
# Outline: as §2
# [16] = 125 g ai/ha, visual rating, scale 0 (no effect) to 100 (complete control)
# [17] = 500 g ai/ha, scale 0 to 100, 0 is no effect, 100 is complete control
# [18] = post-emergence, postemergence, visual rating, scale 0 (no effect) to 100 (complete control), read-out: Cocklebur plant response rating
# [19] = post-emergence, postemergence, visual rating, scale 0 (no effect) to 100 (complete control), read-out: Barnyardgrass plant response rating
structure (smiles),measurement,setting,value
"CCNC(=O)c1cc(NC(=O)c2cn(C(C)(C)C)nc2CC)ccc1F [Compound 241, 1-(1,1-dimethylethyl)-3-ethyl-N-[3-[(ethylamino)carbonyl]-4-fluorophenyl]-1H-pyrazole-4-carboxamide]",pest or weed control at 125 g/ha,"[1]; post-emergence, postemergence, visual rating, scale 0 (no effect) to 100 (complete control), read-out: Lambsquarters plant response rating",30%
same,pest or weed control at 500 g/ha,"[1]; post-emergence, postemergence, scale 0 to 100, 0 is no effect, 100 is complete control, read-out: Lambsquarters plant response rating",50%
same,pest or weed control at 125 g/ha,"[1]; pre-emergence, 0 = no effect, 100 = complete control, read-out: Lambsquarters plant response rating (0 to 100 scale)",80%
same,pest or weed control at 500 g/ha,"[1]; pre-emergence, visual rating, 0 = no effect, 100 = complete control, read-out: Plant response rating, Lambsquarters",100%
same,plant injury at 125 g/ha,[2]; [16],0%
same,plant injury at 500 g/ha,[2]; [17],10%
same,pest or weed control at 125 g/ha,"[3]; post-emergence, postemergence, visual rating, scale 0 (no effect) to 100 (complete control), read-out: Foxtail, Giant plant response rating",0%
same,pest or weed control at 500 g/ha,"[3]; post-emergence, postemergence, scale 0 to 100, 0 is no effect, 100 is complete control, read-out: Foxtail, Giant plant response rating",0%
same,pest or weed control at 125 g/ha,"[3]; pre-emergence, 0 = no effect, 100 = complete control, read-out: Foxtail, Giant plant response rating (0 to 100 scale)",10%
same,pest or weed control at 500 g/ha,"[3]; pre-emergence, visual rating, 0 = no effect, 100 = complete control, read-out: Plant response rating, Foxtail, Giant",90%
same,pest or weed control at 125 g/ha,"[4]; post-emergence, postemergence, visual rating, scale 0 (no effect) to 100 (complete control), read-out: Surinam Grass plant response rating",10%
same,pest or weed control at 500 g/ha,"[4]; post-emergence, postemergence, scale 0 to 100, 0 is no effect, 100 is complete control, read-out: Surinam Grass plant response rating",20%
same,pest or weed control at 125 g/ha,"[4]; pre-emergence, 0 = no effect, 100 = complete control, read-out: Surinam Grass plant response rating (0 to 100 scale)",10%
same,pest or weed control at 500 g/ha,"[4]; pre-emergence, visual rating, 0 = no effect, 100 = complete control, read-out: Plant response rating, Surinam Grass",90%
same,pest or weed control at 125 g/ha,[5]; [18],20%
same,pest or weed control at 500 g/ha,[5]; [18],30%
same,pest or weed control at 125 g/ha,"[5]; pre-emergence, 0 = no effect, 100 = complete control, read-out: Cocklebur plant response rating (0 to 100 scale)",0%
same,pest or weed control at 500 g/ha,"[5]; pre-emergence, visual rating, 0 = no effect, 100 = complete control, read-out: Plant response rating, Cocklebur",0%
same,pest or weed control at 125 g/ha,"[6]; post-emergence, postemergence, visual rating, scale 0 (no effect) to 100 (complete control), read-out: Crabgrass, Large plant response rating",0%
same,pest or weed control at 500 g/ha,"[6]; post-emergence, postemergence, scale 0 to 100, 0 is no effect, 100 is complete control, read-out: Crabgrass, Large plant response rating",10%
same,pest or weed control at 125 g/ha,"[6]; pre-emergence, 0 = no effect, 100 = complete control, read-out: Crabgrass, Large plant response rating (0 to 100 scale)",90%
same,pest or weed control at 500 g/ha,"[6]; pre-emergence, visual rating, 0 = no effect, 100 = complete control, read-out: Plant response rating, Crabgrass, Large",100%
same,plant injury at 1000 g/ha,[7],70%
same,pest or weed control at 1000 g/ha,[8],70%
same,pest or weed control at 1000 g/ha,[9],80%
same,pest or weed control at 125 g/ha,"[10]; post-emergence, postemergence, visual rating, scale 0 (no effect) to 100 (complete control), read-out: Pigweed plant response rating",30%
same,pest or weed control at 500 g/ha,"[10]; post-emergence, postemergence, scale 0 to 100, 0 is no effect, 100 is complete control, read-out: Pigweed plant response rating",50%
same,pest or weed control at 125 g/ha,"[10]; pre-emergence, 0 = no effect, 100 = complete control, read-out: Pigweed plant response rating (0 to 100 scale)",100%
same,pest or weed control at 500 g/ha,"[10]; pre-emergence, visual rating, 0 = no effect, 100 = complete control, read-out: Plant response rating, Pigweed",100%
same,pest or weed control at 125 g/ha,"[11]; post-emergence, postemergence, visual rating, scale 0 (no effect) to 100 (complete control), read-out: Morningglory plant response rating",20%
same,pest or weed control at 500 g/ha,"[11]; post-emergence, postemergence, scale 0 to 100, 0 is no effect, 100 is complete control, read-out: Morningglory plant response rating",70%
same,pest or weed control at 125 g/ha,"[11]; pre-emergence, 0 = no effect, 100 = complete control, read-out: Morningglory plant response rating (0 to 100 scale)",0%
same,pest or weed control at 500 g/ha,"[11]; pre-emergence, visual rating, 0 = no effect, 100 = complete control, read-out: Plant response rating, Morningglory",0%
same,pest or weed control at 125 g/ha,[12]; [19],0%
same,pest or weed control at 500 g/ha,[12]; [19],0%
same,pest or weed control at 125 g/ha,"[12]; pre-emergence, 0 = no effect, 100 = complete control, read-out: Barnyardgrass plant response rating (0 to 100 scale)",0%
same,pest or weed control at 500 g/ha,"[12]; pre-emergence, visual rating, 0 = no effect, 100 = complete control, read-out: Plant response rating, Barnyardgrass",80%
same,pest or weed control at 125 g/ha,[13]; [16],0%
same,pest or weed control at 500 g/ha,[13]; [17],20%
same,pest or weed control at 125 g/ha,"[14]; post-emergence, postemergence, visual rating, scale 0 (no effect) to 100 (complete control), read-out: Velvetleaf plant response rating",10%
same,pest or weed control at 500 g/ha,"[14]; post-emergence, postemergence, scale 0 to 100, 0 is no effect, 100 is complete control, read-out: Velvetleaf plant response rating",10%
same,pest or weed control at 125 g/ha,"[14]; pre-emergence, 0 = no effect, 100 = complete control, read-out: Velvetleaf plant response rating (0 to 100 scale)",20%
same,pest or weed control at 500 g/ha,"[14]; pre-emergence, visual rating, 0 = no effect, 100 = complete control, read-out: Plant response rating, Velvetleaf",100%
same,pest or weed control at 1000 g/ha,[15],80%
